SMILES strings stand for the structures.

As usually defined, the logP is a log measure of how a compound divides between an organic and an aqueous phase. `CCC1(CC=C(C)C)C(=O)NC(=O)NC1=O`: the logP came to 1.73.

The compound `O=C1NC(=O)C2(CCCCCCC2)C(=O)N1` returned a logP of 1.79. This logP and that of the compound before are within 0.2 log units of each other.

As to `C=CCC1(C)C(=O)NC(=O)NC1=O`, the logP was determined as 0.36.

On to `O=C1NC(=O)C2(CCCCC2)C(=O)N1`, for which the logP amounted to 0.91.

Compound `CC(C)=CCC1(C(C)(C)C)C(=O)NC(=O)NC1=O` showed a log partition coefficient (logP) of 2.56.

For `CCC1(C)C(=O)NC(=O)NC1=O`, the logP was found to be 0.08.

With `O=C1NC(=O)C2(CCCCCC2)C(=O)N1`, the lipophilicity (logP) amounted to 1.36.

`CC1(C)C(=O)NC(=O)NC1=O`: the logP is -0.44.

In the case of `O=C1NC(=O)C2(CC2)C(=O)N1`, the logP was -0.53.

On to `O=C1NC(=O)C2(CCC2)C(=O)N1`, for which the logP is -0.27.

Consider `O=C1NC(=O)C2(CCCCCCCCCCC2)C(=O)N1`, for which the logP turned out to be 3.51.

In turn, `O=C1NC(=O)C2(CCCCCCCCCC2)C(=O)N1` gave a logP of 3.15.

Regarding `CC1(c2ccccc2)C(=O)NC(=O)NC1=O`, the lipophilicity (logP) was determined as 0.91.

For `O=C1NC(=S)NC(=O)C12CCCCC2`, the logP came out at 1.78.

`O=C1NC(=O)C(c2ccccc2)(c2ccccc2)C(=O)N1` yielded a lipophilicity (logP) of 1.96.

`O=C1NC(=O)C2(CCCC2)C(=O)N1` showed a logP of 0.24.

In turn, `CC(C)=CCC1(C(C)C)C(=O)NC(=O)NC1=O` displayed a lipophilicity (logP) of 2.23.

The values are drawn from the OPERA property sets (Mansouri et al. 2018).
